According to PMC7321149 (Molecules, 2020):
Where two headings read alike, the source gives them in different places.

Key:
[1] = test system: L. donovani; assay: Leishmania high content assay, intracellular amastigotes in PMA-differentiated THP-1 macrophages; format: cell-based, Leishmania donovani (MHOM/IN/1980/DD8)
Experimental: (§1) THP-1 cells were plated onto 384-well assay plates (7000 cells/well, 25 μL) in RPMI complete media containing 50 ng/mL phorbol 12-myristate 13-acetate (PMA) and incubated at 37 °C/5% CO2 for 48 h. Cells were then infected with stationary-phase promastigotes at a multiplicity of infection (MOI) of 50 by adding 25 μL RPMI (without PMA reagent), containing 1.4 × 10^7 parasites/mL. After 24 h of incubation at 37 °C (34 °C for cutaneous species), negative control-vehicle (0.5% DMSO), the positive control (10 μM amphotericin B), and compounds were added to the plate at a volume of 10 μL/well, bringing the total volume to 60 μL/well. For the primary screenings, compounds from the LOPAC library were tested at a concentration of 50 µM. […] Assay plates were incubated at 37 °C or 34 °C/5% CO2. After 96 h of compound exposure, assay plates were fixed with paraformaldehyde (PFA) by adding 30 μL of 12% PFA in PBS, pH 7.4, followed by incubation for 15 min at room temperature. Plates were then washed three times with 50 μL of PBS, pH 7.4, and stained with 10 μL/well of 5 μM Draq5 in PBS, pH 7.4, for at least two hours before imaging.
(§2) Plates were imaged in Operetta High Content Imaging System (Perkin Elmer), version 3.1, at a 20× magnification and filters optimized for far-red fluorescence (fluorescence filter: […]). A total of four images were acquired per well, which corresponded to 600–800 cells analyzed per condition. Quantitative readouts of the infection (total THP-1 cell number, total number of infected THP-1 cells, and number of parasites (spots) per infected cell) were determined by custom analysis building blocks in Columbus image analysis software (Perkin Elmer). Briefly, host nuclei and cells were segmented based on DNA staining, followed by the detection of individual parasites also based on DNA staining. Infected cells were determined as cells with one or more spots in the cytoplasmatic area. Details of the analysis workflow are described in the (Supplementary Information (Figure S4 and Table S1).
(§3) HCS data were analyzed as previously described^29. Briefly, the ratio of infected cells to the total number of cells was determined as the infection ratio (IR). The raw data for IR values was normalized to the negative (DMSO-treated infected cells) and positive (non-infected cells) controls to determine the normalized antiparasitic activity, expressed as a percentage in comparison to control wells. The cellular ratio was determined as the proportion between the host cell number in compound-treated wells and the mean cell number in infected control wells. Plates were submitted to quality control analysis using the Z’-factor^53 and only plates with Z’-factor > 0.5 were considered for further analysis. Groups of different samples were analyzed using the ANOVA test followed by Tukey’s multiple comparison test. Studies of correlation were performed using Pearson or Spearman tests. […] Dose–response data were processed with the Graphpad Prism software, version 6, using the sigmoidal dose–response (variable slope) nonlinear curve fitting function.

[2] = test system: L. braziliensis; assay: as above; format: cell-based, Leishmania braziliensis (MHOM/BR/1975/M2903); conditions: for EC50: Leishmania braziliensis
Experimental: as §1, §2, §3

[3] = test system: L. amazonensis; assay: as above; format: cell-based, Leishmania amazonensis (MHOM/BR/1977/LTB0016); conditions: for EC50: Leishmania amazonensis
Experimental: as §1, §2, §3

[4] = test system: L. amazonensis, L. braziliensis, and L. donovani; assay: Leishmania multi-species high content assay, result stated across the species panel; format: cell-based; conditions: for Emax: read-out: maximum efficacy; for pan-leishmanial activity (efficacy): against all three species; for normalized activity against two species: two of the three species
Experimental: as §1, §2, §3

[5] = test system: L. donovani; parameters: method as in PMID 21739037; conditions: in vitro; cited from earlier work
[6] = test system: amastigote forms of L. aethiopica; parameters: method as in PMID 11801222; conditions: cited from earlier work
[7] = test system: visceral leishmaniasis; parameters: method as in earlier work; conditions: phase II clinical trial; cited from earlier work
[8] = test system: Leishmania; parameters: method as in PMID 27215734; conditions: cited from earlier work
[9] = THP-1, confirmatory dose-response, mean of two independent experiments, pEC50 = -log EC50 (M), read-out: pEC50 M L. d (converted)
[10] = THP-1, confirmatory dose-response, mean of two independent experiments, pEC50 = -log EC50 (M), read-out: pEC50 M L. b (converted)
[11] = THP-1, confirmatory dose-response, mean of two independent experiments, pEC50 = -log EC50 (M), read-out: pEC50 M L. a (converted)
[12] = THP-1, read-out: pEC50 M L. d (converted)
[13] = THP-1, library screening plates, mean ± standard deviation from eight assay plates, read-out: EC50 Amphotericin B
[14] = reference compound concentration-effect curves (Figure 2B), 96 h exposure, infected THP-1, read-out: EC50
[15] = dose-response of reference drugs, span over the three species
[16] = confirmatory dose-response, mean of two independent experiments, pEC50 = -log EC50 (M)

## Fc1ccc([C@@H]2CCNC[C@H]2COc2ccc3c(c2)OCO3)cc1 [Paroxetine]
[1]; [9]
  EC50: 3.16e-05 M

## CN1CCN(C2Cc3ccccc3Sc3ccc(Cl)cc32)CC1 (centres unmarked) [Clorotepine]
[2]; [10]
  EC50: 2.88e-05 M
[1]; [9]
  EC50: 4.37e-05 M
[3]; [11]
  EC50: 4.57e-05 M

## CC(CN(C)C)CN1c2ccccc2CCc2ccccc21 (centres unmarked) [Trimipramine]
[2]; [10]
  EC50: 2.82e-05 M
[1]; [9]
  EC50: 4.07e-05 M
[3]; [11]
  EC50: 3.98e-05 M

## CN1CCN(CCCN2c3ccccc3Sc3ccc(C(F)(F)F)cc32)CC1 [Trifluoperazine]
[1]; [9]
  EC50: 3.8e-05 M

## CCCCCCCCCCCCCCCCCCOP(=O)([O-])OC1CC[N+](C)(C)CC1 [Perifosine]
[1]; [9]
  EC50: 2.75e-05 M

## CNC1CC(c2ccc(Cl)c(Cl)c2)c2ccccc21 (centres unmarked) [Indatraline]
[1]; THP-1
  EC50: 1.81e-05 M
[1]; [12]
  EC50: 1.82e-05 M

## C[C@@H]1[C@H](O)[C@@H](C)/C=C/C=C/C=C/C=C/C=C/C=C/C=C/[C@H](O[C@@H]2O[C@H](C)[C@@H](O)[C@H](N)[C@@H]2O)C[C@@H]2O[C@](O)(C[C@@H](O)C[C@@H](O)[C@H](O)CC[C@@H](O)C[C@@H](O)CC(=O)O[C@H]1C)C[C@H](O)[C@H]2C(=O)O [amphotericin B]
[2]; [13]
  EC50: 9.3e-07 ± 4.5e-07 M
[2]; [14]
  EC50: 1.3e-06 M
[1]; [13]
  EC50: 8.2e-07 ± 7e-08 M
[1]; [14]
  EC50: 7e-07 M
[3]; [13]
  EC50: 2.1e-06 ± 1.6e-07 M
[3]; [14]
  EC50: 1.7e-06 M
[4]; [15]
  EC50: 0.7 to 2 µM
  Emax: ~100%

## CCCCCCCCCCCCCCCCOP(=O)([O-])OCC[N+](C)(C)C [miltefosine]
[2]; [14]
  EC50: 1.6e-06 M
[5]
  potency against L. donovani relative to L. amazonensis, L. braziliensis, L. guyanensis, and L. chagasi: approximately 20 times
[1]; [14]
  EC50: 6e-07 M
[6]
  sensitivity to miltefosine, L. aethiopica relative to L. major: 14 fold
[3]; THP-1, variation across ten independent experiments, read-out: EC50
  EC50: 9.7e-07 to 1.4e-05 M
[3]; [14]
  EC50: 2.3e-06 M
[4]; EC50 compared between the three species
  potency variation between species: up to 4 fold
[4]; [15]
  Emax: 78 to 100%

## CNCCCC12CCC(c3ccccc31)c1ccccc12 [Maprotiline]
[4]
  pan-leishmanial activity (efficacy): greater than 70%

## Cl.O[Si](CCCN1CCCCC1)(c1ccc(F)cc1)C1CCCCC1 (centres unmarked) [pFHHSiD]
[4]
  normalized activity against two species: > 90%

## NC(=O)c1cc(N2CC2)c([N+](=O)[O-])cc1[N+](=O)[O-] [CB 1954]
[2]; THP-1
  EC50: 1.6e-06 M
[2]; THP-1, read-out: pEC50 M L. b (converted)
  EC50: 2.19e-06 M
[1]; THP-1
  EC50: 3.7e-06 M
[1]; [12]
  EC50: 3.72e-06 M
[3]; THP-1
  EC50: 3.1e-05 M
[3]; THP-1, read-out: pEC50 M L. a (converted)
  EC50: 3.09e-05 M
[4]
  pan-leishmanial activity (efficacy): greater than 70%

## CCc1cccc(N(C)C(N)=Nc2cccc3ccccc23)c1 [Cerestat]
[3]; [11]
  EC50: 2.88e-05 M

## OCCN1CCN(CCCN2c3ccccc3Sc3ccc(Cl)cc32)CC1 [Perphenazine]
[1]; [9]
  EC50: 2.75e-05 M

## CNCCCC1c2ccccc2C=Cc2ccccc21 [Protriptyline]
[2]; [10]
  EC50: 3.72e-05 M
[1]; [9]
  EC50: 2.95e-05 M
[3]; [11]
  EC50: 3.89e-05 M
[4]
  pan-leishmanial activity (efficacy): greater than 70%

## COc1ccccc1OCCNCC(O)COc1cccc2[nH]c3ccccc3c12 (centres unmarked) [Carvedilol]
[2]; THP-1, confirmatory dose-response screen, values in text, read-out: EC50
  EC50: 1.62e-05 M
[2]; [10]
  EC50: 1.62e-05 M
[3]; [11]
  EC50: 3.55e-05 M

## CC(CN1c2ccccc2Sc2ccccc21)N(C)C (centres unmarked) [Promethazine]
[2]; [10]
  EC50: 3.98e-05 M
[3]; [11]
  EC50: 3.98e-05 M

## OCCN1CCN(CCC=C2c3ccccc3Sc3ccc(C(F)(F)F)cc32)CC1 [Flupenthixol]
[1]; [9]
  EC50: 3.47e-05 M

## CN(C)CCCN1c2ccccc2Sc2ccc(C(F)(F)F)cc21 [Triflupromazine]
[1]; [9]
  EC50: 2.82e-05 M

## CCC(=O)c1ccc2c(c1)N(CCCN(C)C)c1ccccc1S2 [Propionylpromazine]
[2]; [10]
  EC50: 3.09e-05 M
[3]; [11]
  EC50: 3.47e-05 M

## CCN(CC)C(C)CN1c2ccccc2Sc2ccccc21 (centres unmarked) [Ethopropazine]
[2]; [10]
  EC50: 3.72e-05 M
[1]; [9]
  EC50: 3.16e-05 M
[3]; [11]
  EC50: 4.57e-05 M

## CN(C)CCCN1c2ccccc2CCc2ccc(Cl)cc21 [Clomipramine]
[4]
  pan-leishmanial activity (efficacy): greater than 70%

## c1cc(CN2CCCCC2)cc(OCCCNc2nc3ccccc3s2)c1 [SKF 95282]
[2]; [10]
  EC50: 2.63e-05 M
[1]; [9]
  EC50: 4.9e-05 M
[3]; [11]
  EC50: 4.27e-05 M

## CC[C@]1(O)C[C@@H]2CN(CCc3c([nH]c4ccccc34)[C@@](C(=O)OC)(c3cc4c(cc3OC)N(C)[C@H]3[C@@](O)(C(=O)OC)[C@H](OC(C)=O)[C@]5(CC)C=CCN6CC[C@]43[C@@H]65)C2)C1 [Vinblastine]
[2]; [10]
  EC50: 3.47e-05 M
[3]; [11]
  EC50: 2.82e-05 M

## CNCCC=C1c2ccccc2CCc2ccccc21 [Nortriptyline]
[2]; [10]
  EC50: 3.63e-05 M
[3]; [11]
  EC50: 2.95e-05 M

## Cl.O=S(=O)(c1cccc2c(Cl)cccc12)N1CCCNCC1 [ML-9]
[4]
  pan-leishmanial activity (efficacy): greater than 70%

## Bromocryptine
[2]; [16]
  pEC50 M L. b: 4.41
[3]; [16]
  pEC50 M L. a: 4.43

## CSc1ccc(OCc2ncc([N+](=O)[O-])n2C)cc1 [fexinidazole]
[7]
  efficacy in patients: failed to demonstrate efficacy

## CNCCCN1c2ccccc2CCc2ccccc21 [Desipramine]
[2]; [10]
  EC50: 3.24e-05 M
[3]; [11]
  EC50: 2.75e-05 M

## CN1C[C@H](CNC(=O)OCc2ccccc2)C[C@@H]2c3cccc4c3c(cn4C)C[C@H]21 [Metergoline]
[1]; [9]
  EC50: 3.24e-05 M

## CN(C)CC/C=C1/c2ccccc2Sc2cc(Cl)ccc21.Cl [EU-0100170]
[4]
  normalized activity against two species: > 90%

## CN(C)CCCN1c2ccccc2Sc2ccccc21 [Promazine]
[2]; [10]
  EC50: 4.57e-05 M

## N=C(CC(=O)O)C(=O)O [Iminoaspartate]
[2]; [16]
  pEC50 M L. b: 4.52
[3]; [16]
  pEC50 M L. a: 4.42

## C[C@]1(COc2ccc(N3CCC(Oc4ccc(OC(F)(F)F)cc4)CC3)cc2)Cn2cc([N+](=O)[O-])nc2O1 [Delamanid]
[8]
  efficacy against Leishmania: effective
